{"source": "patent US20120135055A1", "about": "“Dry Powder Inhaler Formulations” (BREATH LIMITED, priority 2009, published 2012)", "key": {"[1]": {"test": "Dry Sympatec PSD analysis (particle size distribution)", "format": "physicochemical", "settings": "pre-storage"}, "[2]": {"test": "Effect of humidity on prolonged storage (20% RH, 48 hours; DVS, DSC, TGA, PSD, SEM)", "format": "physicochemical", "settings": "20% RH for 48 hours; for DSC trace, thermal behaviour of stored sample: post-humidity treatment", "description": "In order to evaluate the effect of humidity on prolonged storage processed BDP hydrate was subjected to 20% relative humidity (RH) for 48 hours. The sample recovered after storage was analysed by DSC, TGA, PSD and SEM. In order to evaluate the effect of humidity on prolonged storage, processed BDP heptane was subjected to 20% relative humidity (RH) for 48 hours. The sample recovered after storage was analysed by DSC, TGA, PSD and SEM."}}, "data": [{"molecule": "CCC(=O)OCC(=O)[C@@]1(OC(=O)CC)[C@@H](C)C[C@H]2[C@@H]3CCC4=CC(=O)C=C[C@]4(C)[C@@]3(Cl)[C@@H](O)C[C@@]21C.O", "note": "[BDP heptane, beclomethasone diproprionate]", "values": [{"measurement": "Particle size distribution relative to the inhalation range", "setting": "[1]", "result": "extremely promising and within the inhalation range"}, {"measurement": "DSC trace, thermal behaviour of stored sample", "setting": "[2]", "result": "no variation in the thermal behaviour"}, {"measurement": "Particle Size, cumulative distribution Q3 X10", "setting": "[2]; post-storage sample", "result": 0.68, "unit": "μ"}, {"measurement": "Particle Size, cumulative distribution Q3 X50", "setting": "[2]; post-storage sample", "result": 2.44, "unit": "μ"}, {"measurement": "Particle Size, cumulative distribution Q3 X90", "setting": "[2]; post-storage sample", "result": 5.29, "unit": "μ"}]}, {"molecule": "CCC(=O)OCC(=O)[C@@]1(OC(=O)CC)[C@@H](C)C[C@H]2[C@@H]3CCC4=CC(=O)C=C[C@]4(C)[C@@]3(Cl)[C@@H](O)C[C@@]21C.O", "note": "[BDP hydrate, beclomethasone diproprionate]", "values": [{"measurement": "Particle size distribution relative to the inhalation range", "setting": "[1]", "result": "well within the inhalation range"}, {"measurement": "DVS mass plot, change of mass during storage", "setting": "[2]", "result": "considerable weight loss due to partial dehydration"}, {"measurement": "Stability on prolonged storage compared with anhydrous BDP", "setting": "[2]", "result": "higher stability on prolonged storage than anhydrous BDP"}, {"measurement": "DSC trace, thermal behaviour of stored sample", "setting": "[2]", "result": "no variation in the thermal behaviour"}, {"measurement": "Particle Size, cumulative distribution Q3 X50", "setting": "[2]; post-storage sample", "result": 1.37, "unit": "μ"}, {"measurement": "Particle Size, cumulative distribution Q3 X90", "setting": "[2]; post-storage sample", "result": 2.95, "unit": "μ"}]}]}
